Laboratory results reported in US20240408222A1, “COMPOUNDS, PHARMACEUTICAL COMPOSITIONS, AND METHODS FOR THE TREATMENT, PREVENTION, OR MANAGEMENT OF HYPERPRO[…]” (VINCERX PHARMA GMBH, priority 2021, published 2024).
Where two headings read alike, the source gives them in different places.

Tests used:
[1] = buffer pH 7.4, 37° C.
Description: Method for measurement of stability in buffer: 0.15 mg of the test compound was dissolved in 0.1 ml dimethylsulfoxide and 0.4 ml acetonitrile. For complete dissolution, the HPLC vial with the sample solution was shaken and sonicated. Then 1.0 ml of the respective buffer solution was added, and the sample was vortexed. The sample solution was analysed by HPLC to determine the amount of the test compound and up to two byproducts at a particular time over a period of 24 h at 37° C. […] The peak areas (in percentage) were used for quantification.

HT29 [2] = test: Cytotoxicity assay (Version 2, automated, AC50) with/without neutrophil elastase; format: cell-based, human; conditions: Version 2, activity concentration at −50%
Method in brief: (§1)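 Metabolic activity is measured by MTT dye formation (570 nm) after cells are exposed for 72 h to compound alone or compound plus 10 nM elastase, spanning 10^−5 to 10^−13 M in triplicate. A 4-parameter Hill fit of normalized data yields the AC50.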

786-O [3] = test: as above; format: cell-based, human; conditions: Version 2, activity concentration at −50%
Method in brief: as §1

NCI H292 [4] = test: as above; format: cell-based, human; conditions: NCI H292, with (+) neutrophil elastase, Version 2, activity concentration at −50%
Method in brief: as §1

HT29 [5] = test: Cytotoxicity in vitro (MTT) in presence/absence of elastase; format: cell-based, human; conditions: 72 h
Description: (§2) Cultivation of cells was performed according to standard procedures with the media recommended by the provider. The cells, in a total volume of 100 μL, were seeded in a 96-well plate with a white bottom (#3610). After a 24 h incubation period at 37° C. and […], the medium was exchanged by adding 90 μL fresh medium. The treatment started by adding the test compound in 10 μL of culture medium to the cells in triplicates. Concentrations ranging from 10^−5 M to 10^−13 M were chosen. Two identically treated sets of samples were prepared. One set was treated with the test compound alone, whereas to the second set the compound and 10 nM elastase was added followed by a 72 h incubation period at 37° C. and […]. The proliferation was detected using the MTT assay (ATCC). At the end of the incubation period the MTT reagent was added to all samples for 4 h. Lysis of the cells followed by addition of the detergent was done overnight. The formed dye was detected at 570 nm. The proliferation of untreated but otherwise identically handled cells was define as the 100% value.

786-O [6] = test: as above; format: cell-based, human; conditions: 72 h
Description: as §2

NCI H292 [7] = test: as above; format: cell-based, human; conditions: 72 h
Description: as §2

SUM149 [8] = test: as above; format: cell-based; conditions: 72 h
Description: as §2

SUM149 [9] = test: Cytotoxicity assay (Version 2, automated, AC50) with/without neutrophil elastase; format: cell-based; conditions: Version 2, activity concentration at −50%
Method in brief: as §1

[10] = 37° C.
Description: Method for measurement of stability in rat and human plasma: 1 mg of the test compound was dissolved in 0.5 ml acetonitrile/dimethylsulfoxide 1:1. For complete dissolution the HPLC vial was shaken and sonicated. While vortexing, 20 μl of this solution was added to 1 ml 37° C. warm plasma. After 10 min, 0.5 h, 1 h, 1.5 h, 2 h, and 4 h, the assay was stopped by adding 100 μl of the compound plasma solution to a vial containing 300 μl acetonitrile/buffer pH 3 (80:20) at RT. The mixture was centrifuged at 5000 rpm for 10 minutes. The supernatant was analyzed by HPLC to determine the amount of the test compound and up to two byproducts. To values resulted from a processed sample immediately taken after vortexing with plasma at RT. The peak areas (in percentage) were used for quantification. All data was given as percent area of the initial compound at to. The results of these assays are shown in FIG. 1 and FIG. 2 for rat and human plasma, respectively.

[11] = HT29, without (−) neutrophil elastase
[12] = without (−) neutrophil elastase
[13] = SUM149, without (−) neutrophil elastase

For `CCCNC(=O)Nc1cccc(S(=O)(=O)Nc2cccc([C@@H](CC(=O)[O-])NC(=O)Nc3ccc(NC(=O)NCCOCCOCCOCCC(=O)N[C@@H](CC(=O)[O-])C(=O)N4CCC[C@H]4C(=O)N[C@H](C(=O)N=[S@@](C)(=O)Cc4cc5cc(c4)OCCCCOc4cc(F)ccc4-c4nc(ncc4F)N5)C(C)C)cc3)c2)c1.[Na+].[Na+]` [Compound 3], which “time stable in buffer (no significant degradation)” value [1] is on record?
The value was “at least 24 h”.

And the AC50 (HT29 [2]; HT29, with (+) neutrophil elastase)?
Its AC50 is 11 to 100 nM.

And the AC50 (HT29 [2]; [11])?
Its AC50 is greater than 1000 nM.

What about the AC50 (786-O [3]; with (+) neutrophil elastase) of the same compound?
Its AC50 is 11 to 100 nM.

What about the AC50 (786-O [3]; [12]) of the same compound?
The AC50 was greater than 1000 nM.

And the AC50 (NCI H292 [4])?
The AC50 was 11 to 100 nM.

What about the IC50 (HT29 [5]; HT29, with (+) 10 nM neutrophil elastase) of the same compound?
Its IC50 is no more than 1 nM.

And the IC50 (HT29 [5]; [11])?
Its IC50 is greater than 100 nM.

And the IC50 (786-O [6]; with (+) 10 nM neutrophil elastase)?
The IC50 was no more than 1 nM.

What about the IC50 (786-O [6]; [12]) of the same compound?
The IC50 was greater than 100 nM.

What about the IC50 (NCI H292 [7]; NCI H292, with (+) 10 nM neutrophil elastase) of the same compound?
The IC50 was no more than 1 nM.

And the IC50 (NCI H292 [7]; NCI H292, without (−) neutrophil elastase)?
Its IC50 is greater than 100 nM.

What about the IC50 (SUM149 [8]; SUM149, with (+) 10 nM neutrophil elastase) of the same compound?
Its IC50 is no more than 1 nM.

And the IC50 (SUM149 [8]; [13])?
Its IC50 is greater than 100 nM.

What about the AC50 (SUM149 [9]; SUM149, with (+) neutrophil elastase) of the same compound?
The AC50 was 11 to 100 nM.

And the AC50 (SUM149 [9]; [13])?
Its AC50 is 100 to 1000 nM.

And the “time stable in plasma (no significant degradation)” value ([10]; human plasma)?
Its value is “at least 4 h”.

And the “time stable in plasma (no significant degradation)” value ([10]; rat plasma)?
Its value is “at least 4 h”.
